Consider 73 compounds from PubChem BioAssay AID179 (DTP/NCI, 2004).

The test system of this assay is CEM cells HIV-1 protection, formazan growth assay. Nature of the assay: NCI AIDS Antiviral Assay. Particulars: for IC50: measured here: growth of uninfected CEM cells. An outline of the steps: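 Human CEM cells, uninfected and HIV-1-infected, exposed to five drug concentrations; growth measured by soluble formazan assay and scored as percent protection from infection, with protecting compounds retested.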

Calls of active or inactive are those of the source.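 The calls were made as follows: active = compounds giving half or more protection of infected cells from virus-caused growth loss, again on retest; inactive = the rest.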

As for `CCCCCCCCCCCCCP(=O)(OC)OC`, the outcome was inactive. For the compound `CCc1c(C)c(C#N)c(=S)n(C2OC(COC(C)=O)C(OC(C)=O)C(OC(C)=O)C2OC(C)=O)c1C` (stereo not given), the EC50 (commonly the concentration that produces a half-maximal response) was over 200 µM and the 50% inhibitory concentration (IC50) – broadly, the concentration needed to halve the response being measured – is over 200 µM. Consider `CC(=O)C1Cn2c(=O)c3cc4ccccc4cc3c(=O)n2C=C1C` (stereo not given), for which the EC50 is over 112 µM and the IC50 was over 112 µM.

In the case of `O=C(Oc1ccccc1C(=O)O)c1ccccc1O`, the EC50 was over 200 µM and the IC50 was over 200 µM.

Take `CC/C(Cl)=N\OC(=O)Nc1ccc(OC)cc1`: the EC50 is over 20 µM and the IC50 is 6.76 µM. For `CCCCOC(=O)CC(C(=O)OCCCC)C(C(=O)OCCCC)P(=O)(OCCCC)OCCCC` (stereo not given) the same measures were over 26.3 µM and 17.4 µM. For `CC(=O)Nc1ccc(C(=O)NN2C(=O)C(Cl)C2c2cc(Br)ccc2O)cc1` (stereo not given) the same measures were over 200 µM and 4.17 µM. For `COc1ccc(OCC(=O)O)c(C(=O)CCC(=O)O)c1`, the outcome was inactive. As to `C=C1C(C(=O)OC)[C@@]2(C)C(C(=O)OC)C(=O)C(C(=O)OC)[C@@]2(CCC)C1C(=O)OC` (stereo not given in full), the EC50 is over 141 µM and the IC50 worked out at 72.4 µM. As for `O=C1O/C(=C(\Br)c2cccc3ccccc23)c2ccccc21`, the EC50 was over 7.76 µM and the IC50 was over 7.76 µM. As for `N#CC(C#N)=Cc1cccc(F)c1`, the EC50 is over 209 µM and the IC50 came out at 42.7 µM. Consider `CCc1c(O)cc(=O)oc1-c1ccc(OC)c(OC)c1`, for which the EC50 was over 200 µM and the IC50 was over 200 µM. `CC[C@@]12CCC(=S)N(CCSc3ccccc3)[C@@H]1c1c(n(S(=O)(=O)c3ccc(OC)cc3)c3ccccc13)CC2`: the EC50 is over 200 µM and the IC50 is over 200 µM. `COc1ccccc1/C=C\C#N`: the EC50 is over 85.1 µM and the concentration for half-maximal inhibition (IC50) was over 85.1 µM. For the compound `Cn1c(=O)c2[nH]c(=O)c(C(CO)C(=O)c3ccccc3)nc2n(C)c1=O` (stereo not given), the EC50 was over 200 µM and the IC50 came out at 9.55 µM. As to `COC(=O)C1CCC(=O)N1C(c1ccc2c(c1)OCO2)c1cc(OC)c(OC)c(OC)c1` (stereo not given), the EC50 was over 200 µM and the 50% inhibitory concentration (IC50) is over 200 µM. Take `Cc1cc(=O)oc2cc(OCCCOc3ccc4c(C)cc(=O)oc4c3)ccc12`: the EC50 is over 3.72 µM and the concentration for half-maximal inhibition (IC50) is over 3.72 µM. Regarding `CN1C(=O)C2C3C=C4c5ccccc5N(c5ccccc5)C4(C2C1=O)[C@H]1C(=O)N(C)C(=O)[C@@H]31` (stereo not given in full), the EC50 is over 16.2 µM and the IC50 is over 16.2 µM.

For the compound `CCN1C2=NCCN2S(=O)(=O)c2ccccc21`, the EC50 is over 1000 µM and the concentration for half-maximal inhibition (IC50) was 479 µM.

For `CC(C)CC1NC(=O)C(CC(C)C)N(CO)C1=O` (stereo not given), the EC50 is over 200 µM and the IC50 was over 200 µM. As for `C=CCC[P+](c1ccccc1)(c1ccccc1)c1ccccc1`, the EC50 is over 200 µM and the half-inhibitory concentration (IC50) was 2.24 µM. For `Cn1c2ccccc2c2nnc(-n3nc(-c4ccc(Br)cc4)cc3N)nc21` the same measures were over 200 µM and over 200 µM. For `O=C(c1ccccc1)[C@H]1Nc2cnccc2C2c3ccccc3CC21` (stereo not given in full), the EC50 was over 30.9 µM and the half-inhibitory concentration (IC50) was over 30.9 µM. As for `Nc1cn2ncnc2c(=O)[nH]1`, the EC50 is over 174 µM and the IC50 is over 174 µM.

With `CC(=O)OC1CC2C(=O)CC1(C)C2(C)C` (stereo not given), the EC50 is over 200 µM and the IC50 was over 200 µM. Regarding `N#Cc1cc2c(n(NS(=O)(=O)c3ccccc3)c1=O)CCC2`, the EC50 was over 200 µM and the IC50 was over 200 µM. Regarding `COC1N(C2C=CC(CO)O2)C(=O)NC(=O)C1(C)Br` (stereo not given), the EC50 was 100 µM and the IC50 was 129 µM. `CCOC(=O)CC1(c2cccc3ccccc23)OC(=O)c2ccccc21` (stereo not given): the outcome was inactive.

Consider `O=C(O)CCNS(=O)(=O)c1ccc(NC(=O)c2ccccc2)cc1`, for which the outcome was inactive. Regarding `NNc1ncnc2c1ncn2C1OC(CO)CC1F` (stereo not given), the EC50 is over 148 µM and the IC50 is over 148 µM. On to `CC(C)CCn1c(=O)c2c(=O)[nH][nH]c2c2ccccc21`, for which the EC50 was over 200 µM and the 50% inhibitory concentration (IC50) is over 200 µM. As for `CCCN1CN(C(C(=O)N[C@@H]2C(=O)N3C2SC(C)(C)C3C(=O)O)c2ccc(O)cc2)CSC1=S` (stereo not given in full), the EC50 is over 479 µM and the IC50 stood at 145 µM. The matching figures for `CC1CC(C)C2=NOS3=C2C1=NO3` (stereo not given): over 200 µM and over 100 µM. Regarding `O=c1cc(O)nc(CO)[nH]1`, the EC50 was over 200 µM and the IC50 was over 200 µM. For `COc1cc2c(c(C)c1O)[C@H]1COc3ccccc3[C@H]1O2`, the EC50 was over 87.1 µM and the IC50 was 15.8 µM. For the compound `COC(=O)[C@H](Cc1ccccc1)NC(=O)N1CCCN(C(=O)N[C@@H](Cc2ccccc2)C(=O)OC)CCCN(C(=O)N[C@@H](Cc2ccccc2)C(=O)OC)CCC1`, the EC50 is over 100 µM and the IC50 was found to be 27.5 µM. For `CC(=O)Oc1c(Cl)cc(C(=CCC[C@H]2CC[C@@]3(C)[C@@H](CC[C@@H]4[C@@H]3CC[C@]3(C)[C@@H]([C@H](C)CCCC(C)C)CC[C@@H]43)C2)c2cc(Cl)c(OC(C)=O)c(C(=O)O)c2)cc1C(=O)O` the same measures were 162 µM and 174 µM. As to `Cc1cc(C)nc(NC(=S)Nc2ccccc2Cl)c1`, the EC50 was over 200 µM and the half-maximal inhibitory concentration (IC50) is over 200 µM.

Consider `COC(=O)c1ccc(NCc2cc(OC)ccc2OC)cc1`, for which the EC50 is over 200 µM and the IC50 came to 24 µM.

Regarding `NC(=S)Nc1[nH]c(=S)nc2c1c(-c1ccccc1)cn2C(=O)c1ccccc1`, the EC50 is over 25.1 µM and the IC50 was over 25.1 µM. For `Cc1ccc(Cc2n[nH]c(=O)n2Nc2ccccc2)cc1`, the EC50 was over 200 µM and the IC50 is over 200 µM. Take `O=C1CCCN1CO`: the EC50 is over 200 µM and the half-maximal inhibitory concentration (IC50) is over 200 µM. Consider `CN(C)CCNC(=O)Cc1ccccc1Nc1c(Cl)cccc1Cl`, for which the EC50 was over 200 µM and the half-maximal inhibitory concentration (IC50) worked out at 30.2 µM. For `C=C(C)C(C)(C)n1[nH]c(=O)n(-c2ccccc2)c1=O` the same measures were over 200 µM and over 200 µM. The matching figures for `CCC(CCCN)Nc1cc(OC)cc2cccnc12` (stereo not given): over 200 µM and 6.31 µM. `C=C(Nc1ccc(OC)cc1OC)C(=O)Cc1cccc[n+]1[O-]`: the EC50 is over 794 µM and the IC50 was over 794 µM. For `C1CSCCCSCCCSCCCSCCCSCCCSCCCSCCCSC1`, the EC50 was over 8.71 µM and the IC50 is over 8.71 µM. Take `N#Cc1c(NC(=O)CN2CCOCC2)c(C(=O)Nc2ccccc2)n2c1CCCC2`: the EC50 was over 200 µM and the half-inhibitory concentration (IC50) is over 200 µM. For `O=c1[nH]c2nc3ccccc3c(=O)n2nc1Cc1ccccc1`, the EC50 was over 44.7 µM and the 50% inhibitory concentration (IC50) is over 44.7 µM. `O=[N+]([O-])/C(C(Cl)=C(Cl)Cl)=C(/Sc1ccccc1)N1CCCCC1`: the EC50 is over 195 µM and the half-inhibitory concentration (IC50) came out at 12.9 µM. Regarding `COc1ccc(C(=O)NC(=S)Nc2ccccc2)cc1`, the EC50 was over 34.7 µM and the IC50 is over 34.7 µM. As to `CC(=O)O[C@H]1CCc2c(cc(N)c3c2C(=O)C[C@]2(C)C([C@H](C)CCCC(C)C)CCC32C)C1(C)C` (stereo not given in full), the EC50 is over 200 µM and the IC50 was over 200 µM. `O=C(NO)C12C3C4C1C1C2C3C41C(=O)NO` (stereo not given): the EC50 was over 1120 µM and the IC50 amounted to 631 µM. Turning to `CC(=O)Oc1cc(S(=O)(=O)Nc2n[nH]c(N)n2)c(S)cc1Cl`, the EC50 was over 200 µM and the 50% inhibitory concentration (IC50) was over 200 µM.

With `O=C(CN1CCOCC1)c1ccc2c(c1)oc(=O)n2CCN1CCCC1`, the EC50 was over 200 µM and the IC50 worked out at 95.5 µM. `CC1CC[C@@H](C(C)C)[C@H](Oc2nnc(C3OC(CO)C(O)C3O)o2)C1` (stereo not given in full): the EC50 was over 200 µM and the concentration for half-maximal inhibition (IC50) was over 200 µM. Consider `C=CC12CN3C4C3C1C1(CCC42)C(=O)N(COCC[Si](C)(C)C)c2ccccc21` (stereo not given), for which the EC50 was over 63.1 µM and the IC50 came to 25.7 µM.

As for `CC(C)(C)Cc1cc(O)ccc1O`, the 50% effective concentration (EC50) is over 6.03 µM and the IC50 came out at 3.39 µM.

In the case of `CNc1nc(N)c(N=O)c(Nc2ccc(Br)cc2)n1`, the EC50 is over 200 µM and the IC50 was 170 µM. Consider `C[N+](C)(C)C1(C(=O)[O-])CC1`, for which the EC50 was over 200 µM and the 50% inhibitory concentration (IC50) is over 200 µM. As for `Cn1c(=O)c2[nH]c(Nc3cccc(Cl)c3)nc2n(C)c1=O`, the EC50 is over 200 µM and the IC50 stood at 10.7 µM. With `COC12COC(=O)C1C(c1ccc3c(c1)OCO3)c1cc3c(cc1O2)OCO3` (stereo not given), the EC50 was over 200 µM and the IC50 came to 9.12 µM. For `COc1cc(Oc2nc3cc(F)c(F)cc3nc2-c2ccccc2)cc(OC)c1OC` the same measures were over 100 µM and 35.5 µM. For `C=C1CC(Cn2cc(C)c(=O)[nH]c2=O)(c2ccc(Cl)cc2)OC1=O` (stereo not given) the same measures were over 20 µM and 0.617 µM.

Regarding `CCOC(=O)C1C(c2ccccc2)C2(C#N)C(=N)OC1(C)C2(C#N)C#N` (stereo not given), the EC50 was over 200 µM and the concentration for half-maximal inhibition (IC50) was found to be 28.8 µM. For `COc1cc[c]([Sb]([Br])([CH]=C(C)C)([CH]=C(C)C)[CH]=C(C)C)cc1` the same measures were over 380 µM and 3.02 µM. As for `N#C/C(=C\c1ccc(O)c(O)c1)C(=O)NCCCCCCCCNC(=O)/C(C#N)=C/c1ccc(O)c(O)c1`, the EC50 was over 200 µM and the IC50 turned out to be 13.8 µM.

Take `C=C1C(=O)OC2/C=C(\C)C3OC3/C=C(/C(=O)OC)C(OC(C)=O)C(OC(=O)C(C)(O)C(C)OC(C)=O)C12` (stereo not given): the EC50 was over 129 µM and the IC50 was determined as 0.832 µM.

As for `CCC(=O)O[C@H](C)CC1SCCCS1`, the EC50 was over 214 µM and the half-maximal inhibitory concentration (IC50) was over 214 µM. As for `CCOC1=NC(=O)CC(c2ccccc2)S1` (stereo not given), the outcome was inactive.

Take `COc1ccc(C2OC[C@H]3O[C@@H](OCc4ccccc4)[C@H](O)[C@@H](O)[C@@H]3O2)cc1` (stereo not given in full): the EC50 is over 200 µM and the IC50 turned out to be 35.5 µM.

Consider `COC(=O)CCC12CCC(O1)c1ccccc12` (stereo not given), for which the EC50 was over 200 µM and the half-inhibitory concentration (IC50) was over 200 µM. On to `N.N.N.N.O=N[O-].O=N[O-].[Cl-].[Co+3]`, for which the result was inactive.
